For one experiment, the target named is T1, Xenopus Mel1C (Xenopus laevis, UniProt P49219).
T1 construct: expressed in transfected cells
T1 sequence (P49219 1-420): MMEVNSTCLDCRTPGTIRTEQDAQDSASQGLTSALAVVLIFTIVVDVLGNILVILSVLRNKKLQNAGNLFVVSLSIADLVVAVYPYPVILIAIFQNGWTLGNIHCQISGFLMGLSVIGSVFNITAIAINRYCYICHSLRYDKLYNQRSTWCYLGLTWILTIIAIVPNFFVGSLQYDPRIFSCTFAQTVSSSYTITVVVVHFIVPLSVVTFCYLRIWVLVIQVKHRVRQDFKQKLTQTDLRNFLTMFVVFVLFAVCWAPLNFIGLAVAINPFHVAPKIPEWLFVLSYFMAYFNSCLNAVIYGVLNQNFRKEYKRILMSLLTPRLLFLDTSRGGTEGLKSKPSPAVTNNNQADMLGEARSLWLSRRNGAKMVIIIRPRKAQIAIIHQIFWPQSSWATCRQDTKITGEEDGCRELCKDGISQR
The experiment can be described thus: 2-[125I]-iodomelatonin competition binding, membranes from stably transfected CHO cells, Xenopus Mel1c. Particulars: radioligand 2-[125I]-iodomelatonin. The method, then: (§1) CHO-Flp-In cells (Thermo Fisher Scientific, Waltham, USA) were cultivated in the presence of zeocin (0.1 mg/ml). The cells were cotransfected with either platypus (cloned sequence that will be submitted to GenBank) Mel1c/pcDNA5-FRT (platypus Mel1c) or X. laevis (NM 001087919.1) Mel1c/pcDNA5-FRT (clawed frog Mel1c) and Flp recombinase expression pOG44 plasmid using PEIpro (Invitrogen, Carlsbad, CA). CHO cells stably expressing platypus Mel1c or clawed frog Mel1c were selected using hygromycin (0.6 mg/ml). CHO-Flp-In-platypus Mel1c cells were grown in HAM F12 with 2 mM glutamine and supplemented with 10% fetal calf serum. Cells were selected using antibiotic pressure (hygromycin) for 72 h. […] After confirmation of the presence of the transgene, the cells were amplified up to 2 x 10^9 cells. This material was used to prepare the cell membranes used in further pharmacological experiments.
(§2) This standard procedure was described in a previous experiment with CHO cells expressing the sheep MT2 receptor [23]. […] The resulting pellet was suspended in 5 mM Tris/HCl (pH 7.4) containing 2 mM EDTA and homogenized using a Kinematica polytron. The homogenate was then centrifuged (20,000g, 30 min, 4°C) and the resulting pellet suspended in 75 mM Tris/HCl (pH 7.4) containing 2 mM EDTA and 12.5 mM MgCl2. The protein content was determined according to the method of Lowry et al. using the Bio-Rad kit (Bio-Rad SA, Ivry-sur-Seine, France). Aliquots of membrane preparations were stored in binding buffer (50 mM Tris/HCl, pH 7.4 containing 5 mM MgCl2 and 1 mM EDTA) at –80°C until use.
(§3) This approach has been described very often by our laboratory and others. […] The results were expressed as Ki, taking into account the concentration of radioligand used in each experiment. […] The reaction was stopped by rapid filtration through GF/B Unifilters, followed by three successive washes with ice-cold buffer. Data were analyzed by using the program PRISM (GraphPad Software Inc., San Diego, CA). For saturation assays, the density of binding sites (Bmax) and the dissociation constant of the radioligand (KD) were calculated according to the Scatchard method. […] A similar protocol was used when the binding was performed on whole cells, as described by Legros et al.. As per Plos One policy, all the raw data–listings from radioactivity counter are attached as raw files (Supplementary Tables A to M in S1 Data).

The next experiment addresses T2, G. gallus Mel1c receptor (Gallus gallus, UniProt P49288).
T2 construct: expressed in transfected cells; host or cells: COS7 (transient nucleofection, pCIneo vector)
T2 sequence (P49288 1-346): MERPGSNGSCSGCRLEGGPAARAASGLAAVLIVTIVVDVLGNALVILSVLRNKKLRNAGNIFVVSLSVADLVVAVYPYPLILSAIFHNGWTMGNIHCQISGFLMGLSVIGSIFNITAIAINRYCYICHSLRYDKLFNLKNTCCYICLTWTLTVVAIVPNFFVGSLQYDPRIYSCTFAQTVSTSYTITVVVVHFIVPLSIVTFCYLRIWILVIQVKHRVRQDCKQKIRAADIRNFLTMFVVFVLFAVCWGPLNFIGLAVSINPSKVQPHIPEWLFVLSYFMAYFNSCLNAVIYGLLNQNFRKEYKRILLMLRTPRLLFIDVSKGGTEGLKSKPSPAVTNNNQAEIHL
The experiment can be described thus: 2-[125I]-iodomelatonin competition binding, transiently transfected COS7 cells, chicken Mel1c. The method, then: (§4) COS7 cells obtained from the American Type Culture Collection were maintained in DMEM GlutaMAX (Thermo Fisher Scientific, Waltham, USA) supplemented with 10% (v/v) fetal calf serum. Nucleofection of COS7 cells was performed according to the manufacturer's instructions using the Nucleofector machine (Amaxa, Cologne, Germany). Adherent COS7 cells were washed in phosphate-buffered saline (PBS), trypsinized, and gently resuspended in V nucleofection solution to a final concentration of 7 × 10^6 cells/100 μl. Next, 5 μg of pCIneo/Mel1c vector was mixed with 100 μl of the COS7 cell suspension, transferred to a […] electroporation cuvette, and nucleofected using program A024 and an Amaxa Nucleofector apparatus. Just after the nucleofection, 500 μl of media supplemented with 20% (v/v) fetal calf serum was added to the cell suspension and cultured in a humidified 37°C, 5% CO2 incubator for 20 minutes. Fourteen million cells were transferred to a T225 flask containing 50 ml of media supplemented with 20% (v/v) fetal calf serum and cultured in a humidified 37°C, 5% CO2 incubator. Two days after transfection, the cells were harvested in PBS, pelleted, and stored at -80°C until use.
as §3
(§5) To obtain stable expression of the receptor for future studies, a preliminary step involving transient expression of the receptor was performed. The Mel1c receptors from the three species were expressed in transiently transfected COS7 cells. A limited number of compounds were tested in order to gain a preliminary perception of the characteristics of Mel1c from these species.

Experiment [1] concerns the target T3, Platypus Mel1C (Ornithorhynchus anatinus, UniProt A0A2P1K6N2). Briefly: 2-[125I]-iodomelatonin competition binding, membranes from stably transfected CHO cells, platypus Mel1c. As for the experimental part: as §1, §2, §3
A further experiment addresses T4, hMT2 (Homo sapiens, UniProt P49286).
T4 sequence (P49286 1-362): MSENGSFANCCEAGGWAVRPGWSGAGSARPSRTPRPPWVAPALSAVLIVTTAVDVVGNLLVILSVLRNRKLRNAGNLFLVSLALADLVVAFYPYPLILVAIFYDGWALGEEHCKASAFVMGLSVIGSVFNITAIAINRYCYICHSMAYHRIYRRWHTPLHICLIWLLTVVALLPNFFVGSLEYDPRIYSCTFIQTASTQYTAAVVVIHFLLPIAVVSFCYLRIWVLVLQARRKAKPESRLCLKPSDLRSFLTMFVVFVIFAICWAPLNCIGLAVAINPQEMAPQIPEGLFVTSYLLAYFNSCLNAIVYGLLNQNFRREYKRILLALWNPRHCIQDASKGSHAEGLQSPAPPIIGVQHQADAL
Briefly: 2-[125I]-iodomelatonin competition binding, human MT2. The following applies: membranes from stably transfected CHO cells; radioligand 2-[125I]-iodomelatonin; read-out: hMT2 (converted). As for the experimental part:
as §3

The target of experiment [2] is T3, Platypus Mel1C. Briefly: 2-[125I]-iodomelatonin competition binding, transiently transfected COS7 cells, platypus Mel1c. The following applies: COS7 cells transiently transfected with Mel1c gene; radioligand 2-[125I]-iodomelatonin; two transfections, triplicate. The method, then: as §4, §3, §5
A further experiment has as its target hMT1 (Homo sapiens, UniProt P48039). The experiment can be described thus: 2-[125I]-iodomelatonin competition binding, human MT1. Also on record: hMT1: unit not given here. The following applies: membranes from stably transfected CHO cells, radioligand 2-[125I]-iodomelatonin; for Ki: read-out: hMT1 (converted). As for the experimental part: as §3
The next experiment concerns the target T5, X. laevis Mel1c receptor (Xenopus laevis, UniProt P49219).
T5 construct: expressed in transfected cells; host or cells: COS7 (transient nucleofection, pCIneo vector)
T5 sequence (P49219 1-354 isoform P49219-2): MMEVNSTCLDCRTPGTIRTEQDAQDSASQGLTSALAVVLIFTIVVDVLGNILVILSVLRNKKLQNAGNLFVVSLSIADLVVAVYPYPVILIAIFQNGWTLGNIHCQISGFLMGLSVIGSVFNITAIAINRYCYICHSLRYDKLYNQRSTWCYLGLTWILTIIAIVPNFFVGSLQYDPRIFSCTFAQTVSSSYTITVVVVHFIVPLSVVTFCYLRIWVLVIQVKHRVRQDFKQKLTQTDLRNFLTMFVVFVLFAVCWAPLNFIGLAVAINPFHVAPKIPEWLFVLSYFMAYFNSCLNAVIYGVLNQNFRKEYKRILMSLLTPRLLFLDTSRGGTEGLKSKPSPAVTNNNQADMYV
The experiment can be described thus: 2-[125I]-iodomelatonin competition binding, transiently transfected COS7 cells, Xenopus Mel1c. The following applies: COS7 cells transiently transfected with Mel1c gene; radioligand 2-[125I]-iodomelatonin; two transfections, triplicate; read-out: pKi Xenopus laevis (converted). The method, then: as §4, §3, §5

Another experiment concerns MT1. The following applies: introduction statement; cited from earlier work.
The test system of the next experiment is quinone reductase 2; QR2. Also noted: method as in PMID 10913150. The following applies: introduction statement, 'in the 10 μM range'; cited from earlier work.
The next experiment has as its system GPR50. The following applies: mammalian melatonin-related receptor; cited from earlier work.
The subject of the next experiment is MT2. Particulars: introduction statement; cited from earlier work.
Setting [3] is: membranes from stably transfected CHO cells, radioligand 2-[125I]-iodomelatonin, read-out: Platypus Mel1C (converted).

Where two headings read alike, the source gives them in different places. A value given as a limit tells only on which side of the number the result lay.

Chain of hMT1 (P48039 whole entry): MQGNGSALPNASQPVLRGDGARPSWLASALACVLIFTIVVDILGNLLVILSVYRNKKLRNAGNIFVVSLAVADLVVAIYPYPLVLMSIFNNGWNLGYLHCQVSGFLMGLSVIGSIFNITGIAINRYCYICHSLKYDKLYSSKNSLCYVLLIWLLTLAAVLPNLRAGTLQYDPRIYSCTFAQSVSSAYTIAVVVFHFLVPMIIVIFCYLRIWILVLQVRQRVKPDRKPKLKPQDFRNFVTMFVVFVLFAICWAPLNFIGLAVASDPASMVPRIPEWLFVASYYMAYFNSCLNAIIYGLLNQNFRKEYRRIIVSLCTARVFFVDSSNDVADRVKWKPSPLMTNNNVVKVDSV
T3 sequence (A0A2P1K6N2 1-349): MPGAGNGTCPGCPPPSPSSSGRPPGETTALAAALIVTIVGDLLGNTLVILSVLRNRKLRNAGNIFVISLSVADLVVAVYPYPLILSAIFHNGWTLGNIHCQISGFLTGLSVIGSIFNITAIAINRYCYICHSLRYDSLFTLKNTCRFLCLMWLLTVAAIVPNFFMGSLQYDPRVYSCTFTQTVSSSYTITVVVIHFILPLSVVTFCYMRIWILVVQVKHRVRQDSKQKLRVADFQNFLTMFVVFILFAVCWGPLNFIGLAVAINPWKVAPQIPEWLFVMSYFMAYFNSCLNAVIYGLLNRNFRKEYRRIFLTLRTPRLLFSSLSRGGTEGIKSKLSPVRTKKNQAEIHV

On to `CCC(=O)N[C@@H]1Cc2ccccc2[C@H](c2ccccc2)C1` [4P-PDOT, N-[(2S,4S)-4-phenyl-1,2,3,4-tetrahydronaphthalen-2-yl]propanamide], for which the Ki at Xenopus Mel1C is 794 nM; on G. gallus Mel1c receptor, 398 nM; on Platypus Mel1C [1] (setting [3]) it was 631 nM; on hMT2, 1.26 nM; at hMT1, 158 nM; on X. laevis Mel1c receptor, 200 nM. On Platypus Mel1C [2], the “pKi Ornithorhyncus anatinus” value stood at 6.7.

For the compound `COc1ccc2[nH]cc(CCNC(C)=O)c2c1` [Melatonin], the Ki was 2 nM at Xenopus Mel1C; approximately 1 nM on Platypus Mel1C [1] (affinity of platypus Mel1c for melatonin, abstract statement, 'in the 1 nM range'); 2 nM at Platypus Mel1C [1] (setting [3]); 1.58 nM on X. laevis Mel1c receptor. Further, the “affinity of MT1 for melatonin” value in the experiment on MT1 is not above 1 nM. Besides, the “pKi Ornithorhyncus anatinus” value at Platypus Mel1C [2] is reported as 8.6. Further, in the experiment on quinone reductase 2; QR2, the “affinity of QR2 for melatonin” value was approximately 10 µM. For the same compound, the “melatonin binding to GPR50” value in the experiment with GPR50 is on record as “does not bind melatonin”. In addition, in the experiment with MT2, the “affinity of MT2 for melatonin” value is on record as not above 1 nM.

`CCc1ccc2scc(CCNC(C)=O)c2c1` [S22153, N-[2-(5-ethylbenzothiophen-3-yl)ethyl]acetamide]: the Ki is 126 nM at Xenopus Mel1C; 200 nM on G. gallus Mel1c receptor (COS7 cells transiently transfected with Mel1c gene, radioligand 2-[125I]-iodomelatonin, two transfections, triplicate, read-out: pKi Gallus gallus (converted)); 50.1 nM at Platypus Mel1C [1] (setting [3]); 10 nM on hMT2; 6.31 nM at hMT1; 100 nM on X. laevis Mel1c receptor. Further, at Platypus Mel1C [2], the “pKi Ornithorhyncus anatinus” value worked out at 7.6.

As to `CC(=O)NCCc1c(Cc2ccccc2)[nH]c2ccccc12` [Luzindole, N-acetyl-2-benzyltryptamine], the Ki at Xenopus Mel1C is 2510 nM; on G. gallus Mel1c receptor, 3980 nM; on Platypus Mel1C [1] (setting [3]), 2510 nM; on hMT2, 25.1 nM; at X. laevis Mel1c receptor it was 2000 nM. Also, the “pKi Ornithorhyncus anatinus” value at Platypus Mel1C [2] came to 5.9. Besides, at hMT1, the hMT1 came out at 6.6.

Source of the values: article PMC5846726, “Characterization of the Mel1c melatoninergic receptor in platypus (Ornithorhynchus anatinus)” (PLoS ONE, 2018).
